{
  "source": "patent US10130611B2",
  "about": "“Use of benzo-heterocycle derivatives for preventing and treating cancer or for inhibiting cancer metastasis” (MEDICINAL BIOCONVERGENCE RESEARCH CENTER, priority 2009, dated 2018)",
  "key": {"[1]": {"target": "T1, interaction between laminin receptor and GST-KRS (Homo sapiens, UniProt Q15046)", "T1 construct": "made in house; host or cells: GST-KRS: E. coli Rosetta (DE3); 37LRP: TNT Quick coupled Transcription/Translation system (Promega) from pcDNA3-37LRP", "T1 sequence (Q15046 whole entry)": "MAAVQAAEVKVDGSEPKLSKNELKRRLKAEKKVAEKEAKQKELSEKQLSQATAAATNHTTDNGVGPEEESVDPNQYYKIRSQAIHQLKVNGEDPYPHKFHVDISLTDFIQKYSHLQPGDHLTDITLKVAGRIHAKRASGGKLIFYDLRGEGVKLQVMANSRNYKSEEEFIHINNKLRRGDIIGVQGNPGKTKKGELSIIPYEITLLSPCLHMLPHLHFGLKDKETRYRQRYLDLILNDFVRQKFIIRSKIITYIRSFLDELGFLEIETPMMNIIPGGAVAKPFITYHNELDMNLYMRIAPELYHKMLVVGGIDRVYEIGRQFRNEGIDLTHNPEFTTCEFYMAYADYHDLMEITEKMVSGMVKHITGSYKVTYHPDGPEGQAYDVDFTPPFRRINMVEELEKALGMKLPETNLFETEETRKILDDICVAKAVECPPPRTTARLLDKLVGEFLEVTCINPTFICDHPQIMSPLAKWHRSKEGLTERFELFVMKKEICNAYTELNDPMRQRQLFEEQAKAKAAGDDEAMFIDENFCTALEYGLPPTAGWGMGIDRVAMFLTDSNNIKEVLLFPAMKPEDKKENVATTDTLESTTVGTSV", "test": "In vitro pull-down of radiolabelled laminin receptor with GST-KRS", "assay_type": "binding", "settings": "KL1 in different amounts; GST-KRS 1 μg; autoradiography", "method": "As a control, an OD level of cells treated with DMSO was measured. FIG. 32 is a photograph showing cell growth in wells containing yeast cells having indicated interaction pairs in the presence or absence of CAND-KL1. In FIG. 33, in 293 cells, through co-immunoprecipitation, the KL1-dose-dependent effect on the interaction between KRS and 67LR was tested. The cells were treated with KL1 for 3 hours, 67LR was immunoprecipitated, and co-precipitation of KRS was determined by western blotting. In FIG. 34, in the presence of KL1 in indicated levels, a laminin receptor labeled with radioisotope was mixed with GST-KRS (1 μg). GST-KRS was precipitated with glutathione-Sepharose beads, and co-precipitated laminin receptor was detected with autoradiography. In FIG. 35, in A549 cells, the effect of KL1 on the intracellular level of 67LR and 37LRP was tested with western blotting. […] GST-KRS was immobilized on a CM5 Sensor Chip, and the binding was measured by a resonance unit (RU) at indicated concentrations (indicated by different colors). […]\nFrom among the compounds, the inventors also examined whether the compound represented by Formula 15 (indicated by CAND-KL1, and KL1) can inhibit the intracellular interaction between KRS and 67LR. […] Then, 67LR was immunoprecipitated with its antibody, and co-immunoprecipitation of KRS was determined. […]"}, "A549 cells": {"system": "A549 cells", "test": "Cell protein synthesis ([35S]methionine incorporation)", "assay_type": "cell-based, human", "settings": "KL1 at indicated concentrations, [35S]methionine 2 hours", "method": "On MMP2 activity (FIG. 37) and cell migration (FIGS. 38 and 39), KL1-dose-dependent effect was measured. For the test on the cell migration, the cells were treated with KL1 for 8 hours. In FIG. 40, in order to see the effect of KL1 on protein synthesis of cells, A549 cells were treated with KL1 at indicated concentrations, and starved in methionine-free medium. Then, [^35S] methionine was added thereto for 2 hours. Then, the cells were incubated in complete medium for 4 hours, and the level of added methionine was measured by a scintillation counter. In FIG. 41, KL1-dose-dependent cytotoxicity was measured by using A549 cells. In FIG. 42, the effect of KL1 on cancer metastasis was measured according to the method as described above. In each group, 6 mice were included, and KL1 was abdominally injected for 3 weeks, in a dose of 30 mg/kg once a day. Then, the mice were sacrificed. The metastasized tumor nodules over 1 mm in diameter were counted, and their average was calculated (left). The photograph of a representative lung is shown at the right side. […]\nA549 cells were treated with the compound (2-[2-(4-methyl-benzoylimino)-benzothiazole-3-yl]-butyric acid, CAND-KL1 or KL1) represented by Formula 15, at indicated concentrations. […] They were lysed, and the radiation dose of lysed cells was measured by a scintillation counter."}, "[2]": {"target": "T2, interaction between KRS and laminin receptor (67LR) (Homo sapiens, UniProt Q15046)", "T2 construct": "expressed in transfected cells; host or cells: yeast EGY/SH cells", "T2 sequence (Q15046 whole entry)": "as above", "test": "Yeast two hybrid growth assay, LexA-KRS/B42-LR pair", "assay_type": "cell-based", "method": "On the compound of the present invention obtained by screening a library of compounds, the extent of inhibition on the interaction between KRS and laminin receptor (67LR) was determined by a yeast two hybrid assay, as described below. KRS, LR, AIMP2, AIMP3 and MRS were cloned at LexA vector (clontech) and B42 vector (clontech) each so as to produce required vectors. From among the vectors, LexA-KRS vector and B42-LR vector were co-transformed into yeast EGY/SH cells, and then the yeast cells were diluted to an absorbance (540 nm wavelength) of 0.2 in galactose medium not containing uracil (Ura), histidine (His), tryptophane (Trp) and leucine (Leu), and placed in an amount of 200 u in a 96 well plate. 1 μl of each compound at a concentration of 10 mg/ml was placed in each well, incubated for 6 days, and the absorbance was measured at 540 nm. […] The inhibitory specificity of the selected compound was tested by using two different interaction pairs such as LexA-KRS/B42-AIMP2 and LexA-MRS/B42-AIMP3.\nIn order to determine if the compound of the present invention controls the interaction between KRS and laminin receptor, the present inventors determined the interaction between KRS and 67LR through treatment of the compound of the present invention."}},
  "data": [
    {"smiles": "CCC(C(=O)O)n1/c(=N/C(=O)c2ccc(C)cc2)sc2ccccc21", "note": "(stereo not shown) [Compound of formula 15, 2-[2-(4-Methyl-benzoylimino)-benzothiazol-3-yl]-butyric acid]", "values": [
      {"measurement": "level of laminin receptor pulled down with GST-KRS", "setting": "[1]", "value": "decreased according to an increase of the added KL1 compound"},
      {"measurement": "intracellular protein synthesis", "setting": "A549 cells", "value": "not influenced"},
      {"measurement": "inhibition at 10000 µg/mL (stock)", "setting": "[2]; growth inhibition of yeast EGY/SH cells with LexA-KRS/B42-LR vs control, 1 μl of 10 mg/ml compound per well, 6 days, absorbance 540 nm, read-out: Inhibition rate(%)", "value": 52.1, "unit": "%"},
      {"measurement": "KRS-67LR (yeast growth, OD level)", "setting": "[2]; yeast two hybrid pair KRS-67LR, compound at 50 μg/ml, DMSO control 0.4241", "value": 0.2223}
    ]}
  ]
}
